From article PMC12040169 (PLOS Biology, 2025)

Experiment: in vitro
Conditions: human, hela cells, % viability

SMILES | viability at 28.5 h, 10 µM [%]
COc1ccc(-c2cnc(N)c(NCCCN3CCOCC3)n2)c(OC)c1OC [CBK063676] | 113
Cc1nc(NCc2ccc(C(F)(F)F)cc2)nc(N2CCOCC2)n1 [CBK023863] | 91.9
C=CCn1c(-c2sc(NC(=O)CN3C(=C)c4ccccc4C3=O)nc2C)n[nH]c1=S [CBK297909] | 84.4
Cc1ccc2c(c1)C(NC(=O)C1CC1)CC1(CCOCC1)O2 (stereo not drawn) [CBK284879] | 93.4
COCC(=O)N1CCc2sccc2C1c1ccc(NC(=O)c2ccc(F)cc2)cc1 (stereo not drawn) [CBK286435] | 93.8
Cc1cc(NC(=O)c2ccc3c(c2)OCO3)nc2c1c(=O)oc1ccccc12 [CBK291121] | 117
O=C(N/N=C\c1ccc([N+](=O)[O-])o1)c1nc(-c2ccccc2)cc(-c2ccccc2)n1 [CBK261958] | 95.5
CC1Oc2ccccc2OC1C(=O)Nc1nnc(Cc2ccccc2)s1 (stereo not drawn) [CBK295634] | 90.5
CCC(=O)NC(N(Cc1ccccc1)Cc1ccccc1)C(Cl)(Cl)Cl (stereo not drawn) [CBK261022] | 90.9
CN1CCN(C(=O)c2cccc(NS(=O)(=O)c3cc(Cl)sc3Cl)c2)CC1 [CBK038966] | 96.2
CC(C)CC(NC(=O)c1cccnc1)c1nnc2n1CCNCC2 (stereo not drawn) [CBK307149] | 89.2
CC(C)Nc1nccnc1-c1ccc(CO)cc1 [CBK088519] | 90.1
O=C(NC1CC1)[C@@H]1C=CCN1S(=O)(=O)c1ccc(F)cc1 [CBK284294] | 92.5
CCCn1c(SCC(=O)Nc2scc(CC(C)C)c2C(=O)OCC)n[nH]c1=O [CBK295615] | 98.1
Cc1ccc(S(=O)(=O)N2CC(=O)NC2=S)cc1 [CBK023293] | 94.5
COC(=O)c1ccsc1NS(=O)(=O)c1ccc(Br)cc1 [CBK039058] | 94.1
COc1c(C)cccc1C(=O)N1CCCC(c2ccc(Nc3nc(C)cc(C)n3)cn2)C1 (stereo not drawn) [CBK285989] | 98.5
CC(C)(C)OC(=O)N1CCC(Oc2nccnc2OCc2ccc(Cl)cc2F)CC1 [CBK163968] | 104
N#Cc1ccc(Cn2ccnc(N3CCC(Sc4ccccc4)CC3)c2=O)cc1 [CBK153653] | 98.2
COc1nccnc1OC1CCN(CC2CCCCC2)CC1 [CBK084263] | 96.2
Cc1nnc(SCC(=O)Nc2nnc(C(C)C)s2)[nH]c1=O [CBK022107] | 87

SMILES | viability at 28.5 h, 10 µM [%]
Cc1nc[nH]c1CN(Cc1ccccc1)C1CC(C)(C)NC(C)(C)C1 [CBK283178] | 92
CCc1ccc2c(c1)C(CCNC(=O)c1sccc1C)C(=O)N2 (stereo not drawn) [CBK306459] | 88.5
Cc1ncc2c(n1)CCCC2NC(=O)c1ccccc1Cn1cncn1 (stereo not drawn) [CBK306381] | 100
CCOC(=O)C1=C(C)Nc2nc(C)nc(Cl)c2O1 [CBK021504] | 103
COc1ccc([C@@]23CCCN(C(=O)Nc4ccc(C)c(F)c4)C[C@@H]2N(C)CC3)cc1OC [CBK056680T] | 110
Cc1c(S(=O)(=O)Nc2ccc(C(=O)c3ccccc3)cc2)cnn1-c1ccccc1 [CBK051034] | 96.5
CC(=O)N1CCN([C@H]2[C@@H]3OC[C@@H](O3)[C@@H](NC(=O)NC3CCCCC3)[C@@H]2O)CC1 [CBK288810] | 101
COc1ccc(C(=O)N2CCC3(CCCN(Cc4nc5ccccc5[nH]4)C3)C2)cc1OC (stereo not drawn) [CBK132847] | 93.9
CCn1cc(C(=O)O)c(=O)c2cnc(N3CCN(C(=S)NC(=O)c4c(-c5ccccc5)noc4C)CC3)nc21 [CBK267491] | 85
O=C(CCc1ccc(F)cc1)N1CCC(CC(=O)N2CCN(c3ccccc3)CC2)CC1 [CBK286245] | 108
COc1ccc(CNc2nccs2)c(O)c1 [CBK265690] | 86.2
O=C(NCCN1CCC(O)(c2ccc(F)cc2)CC1)c1cccs1 [CBK283163] | 91.5
COc1cc(CNc2cc(-c3ccc(F)c(Cl)c3)nc3ccnn23)cc(OC)c1OC [CBK037209] | 107
CC(C)N1C[C@@H](C(=O)NC(C)(C)C)[C@@]2(Cc3ccccc3C(=O)N2)C1 [CBK285295] | 101
COC(=O)N/N=C(\C)c1ccc(Br)s1 [CBK027886] | 103
Cc1ccc2c(c1)c(C(=O)N1CCn3nc(CO)cc3C1)nn2C [CBK307134] | 104
O=C1NC2CCCCC2NC1CC(=O)N1CCN(Cc2ccccc2)CC1 (stereo not drawn) [CBK269484] | 92.5
NS(=O)(=O)c1ccc(NC(=O)CN2CCN(c3ccc([N+](=O)[O-])cc3)CC2)cc1 [CBK266232] | 96.8
CCS(=O)(=O)Nc1cc(Cl)ccc1C [CBK111350] | 79.1
CCN(CC)CCNc1nc2c(=O)[nH]c(=O)n(C)c2[nH]1 [CBK287918] | 116
COc1nc2ccn(CCC3CCOC3)c(=O)c2cc1C#N (stereo not drawn) [CBK307343] | 101

SMILES | viability at 28.5 h, 10 µM [%]
Cc1cc(C)c(C)c(OCC(=O)N(Cc2nc(-c3ccccc3)no2)C2CCCCC2)c1 [CBK268974] | 104
Cc1ccc(S(=O)(=O)N(CC(=O)Nc2ccccc2F)c2cc(Cl)ccc2Cl)cc1 [CBK268647] | 111
CCCc1ccc(S(=O)(=O)Nc2cccc(C(=O)Nc3ccc(F)cc3)c2)cc1 [CBK038978] | 97.4
CN1N=C(c2ccccc2)CC1=O [CBK067774] | 96.4
Cc1nn(-c2ccccn2)c2c1-c1oncc1CC2 [CBK287280] | 90.7
O=C1CCOC[C@]2(CN(Cc3ccccc3)C[C@H]2c2ccccc2)N1 [CBK283367] | 92.6
CC(Oc1ccc(-c2ccccc2)cc1)C(=O)Nc1ccc2c(c1)OCCO2 (stereo not drawn) [CBK268002] | 92.3
CCN1CCCC1CN(Cc1ccncc1)Cc1ccoc1 (stereo not drawn) [CBK283171] | 91
CN(C)c1cccc(-c2cc(N3CCN(c4ccccn4)CC3)ncn2)c1 [CBK037825] | 104
Cc1cc(C2CCCCCN2Cc2c(C)nn(C)c2C)no1 (stereo not drawn) [CBK284846] | 87.6
CN1C(=O)COc2ccccc2CCCC[C@@H]2[C@H]1CCCN2C(=O)c1cc(=O)[nH]c(=O)[nH]1 [CBK292110] | 83.3
Cc1nc2c(OCCOc3ccccc3)cccn2c1N(C)CC1CC1 [CBK147272] | 96.8
Cc1cc(Oc2ccccc2)nc(Oc2ccc(=O)n(-c3ccccc3)n2)n1 [CBK269843] | 106
CC(=O)c1ccc2[nH]c(C(=O)O)c(CCN)c2c1 [CBK260944] | 91.6
Cc1ccc(C2Nc3ccccc3C3=NCCCN32)o1 (stereo not drawn) [CBK284488] | 103
O=C(Cn1ncn2nc(-c3ccccc3)cc2c1=O)Nc1ccc(F)cc1 [CBK287759] | 85.8
CCCN(C(C)=O)c1nc(O)cc(C(F)(F)F)n1 [CBK000427] | 85.5
C=C(C)CN1CCN(C(C(=O)O)c2c[nH]c3ccc(OCc4ccccc4)cc23)CC1 (stereo not drawn) [CBK286668] | 80.6
Cc1ccc(CN(CCCn2ccnc2)Cc2[nH]cnc2C)s1 [CBK283138] | 90.3

Same assay, conditions: human, hela cells, % viability, bulk resorufin, single well

SMILES | viability at 28.5 h, 10 µM [%]
Fc1cc(F)cc(-c2ccc3c(c2)COC2(CCNCC2)O3)c1 [CBK060915] | 87.7
Oc1cccc(CN2CCN(c3cccc(Cl)c3)CC2)c1 [CBK261543] | 90.1
